Reference: US11470844B2, “Vespidae wasp repellent” (KINP CO., LTD, priority 2015, dated 2022)

System: Vespidae worker, all species
Test: Grape juice attraction trap set outside
Assay type: in vivo
Experimental: The inventors conducted the experiment at four places in Kagawa Prefecture Kinbuchi Forest Park. The experiment was conducted totally 4 times from Oct. 11 to Nov. 4, 2013, from Nov. 4 to Dec. 7, 2013, from Oct. 1 to Oct. 31, 2014, and from Oct. 31 to Dec. 9, 2014.
First, four 2 cm square holes were opened on the side of a 2 L capacity PET bottle, and 500 mL of grape juice was added thereto to prepare a control attraction trap to kill a Vespidae worker. As Test liquid example, 25 mL, 5 mL or 1 mL of 2-phenylethanol was added to the grape juice of the traps. […] Since all of the test sites were low mountainous and sloping areas and had many trees, each trap had to be suspended from the branch of live trees. As a result, the horizontal distances between a pair of control example trap and test liquid example trap could not be adjusted to the same, and the distance was from 1 m to 8.5 m. There were not only Vespidae worker but also male Vespidae among the killed Vespidae wasps in the attraction traps; however, the results of the control example and test liquid example were compared on the basis of the number of the killed Vespidae worker, since a Vespidae worker causes a stabbing accident and plays an important role in building a nest. In Table 8, “*” indicates the case where there is a significant difference at p<0.01 in the χ^2 test to which the correction of Yates is applied, and “**” indicates the case where there is a significant difference at p<0.001 in the same test. The result of the first experiment in 2013 is shown in Table 9, the result of the second experiment in 2013 is shown in Table 10, the result of the first experiment using 1% 2-phenylethanol in 2014 is shown in Table 11, the result of the second experiment in 2014 is shown in Table 12, the result of the first experiment using 0.1% 2-phenylethanol in 2014 is shown in Table 13, and the result of the second experiment in 2014 is shown in Table 14. In Tables 9 to 14, “*” indicates the case where there is a significant difference at p<0.05 in the t-test, “**” indicates the case where there is a significant difference at p<0.01 in the same test, and “***” indicates the case where there is a significant difference at p<0.001 in the same test.
In the first experiment and second experiment, the trap prepared by adding 25 mL of 2-phenylethanol to 500 mL of grape juice was used as the test liquid example of 5% 2-phenylethanol.
In the first experiment and second experiment, 10 traps prepared by adding 5 mL of 2-phenylethanol to 500 mL of grape juice and 10 traps prepared by adding 0.5 mL of 2-phenylethanol to 500 mL of grape juice were used respectively as the 2 kinds of test liquid examples of 1% 2-phenylethanol and 0.1% 2-phenylethanol to conduct the experiment.

[1] = 0.1% 2-phenylethanol trap, first experiment 2014, 10 traps
[2] = 0.1% 2-phenylethanol trap, second experiment 2014, 10 traps
[3] = 1% 2-phenylethanol trap, first experiment 2014, 10 traps
[4] = 1% 2-phenylethanol trap, second experiment 2014, 10 traps
[5] = 5% 2-phenylethanol trap, first experiment 2013, 18 traps
[6] = 5% 2-phenylethanol trap, second experiment 2013, 18 traps

OCCc1ccccc1 [2-Phenylethanol, 2-phenylethanol]
Number of effective trap (0.1% 2-phenylethanol in grape juice, 2014, 1st experiment, 10 installed traps): 10 | Number of effective trap (0.1% 2-phenylethanol in grape juice, 2014, 2nd experiment, 10 installed traps): 1 | Total number of killed worker (Average ± SD), All species [1]: (6.20 ± 6.27) | Total number of killed worker, All species [1]: 62 | Total number of killed worker (Average ± SD), All species [2]: (0.30 ± 0.95) | Total number of killed worker, All species [2]: 3 | Number of effective trap (1% 2-phenylethanol in grape juice, 2014, 1st experiment, 10 installed traps): 0 | Number of effective trap (1% 2-phenylethanol in grape juice, 2014, 2nd experiment, 10 installed traps): 0 | Total number of killed worker (Average ± SD), All species [3]: (0.00 ± 0.00) | Total number of killed worker, All species [3]: 0 | Total number of killed worker (Average ± SD), All species [4]: (0.00 ± 0.00) | Total number of killed worker, All species [4]: 0 | Number of effective trap (5% 2-phenylethanol in grape juice, 2013, 1st experiment, 18 installed traps): 0 | Number of effective trap (5% 2-phenylethanol in grape juice, 2013, 2nd experiment, 18 installed traps): 0 | Total number of killed worker (Average ± SD), All species [5]: (0.00 ± 0.00) | Total number of killed worker, All species [5]: 0 | Total number of killed worker (Average ± SD), All species [6]: (0.00 ± 0.00) | Total number of killed worker, All species [6]: 0 | time for which 2-phenylethanol contained in grape juice maintained its effect (5% and 1% 2-phenylethanol traps): at least about one month
